The record followed here is publication PMC10799935, “Discovery of a peripheral 5HT2A antagonist as a clinical candidate for metabolic dysfunction-associated steatohepatitis” (Nature Communications, 2024).

The subject of one data set is TNF-α. As to the kind of experiment: CDAHFD mice: TNF-α immunohistochemical staining. Also on record: TNF-α immunohistochemical staining (TNF-a area), individual mouse / TNF-α immunohistochemical staining (TNF-a area), Average: unit not given here. As to conditions: for TNF-α immunohistochemical staining (TNF-a area), Average / TNF-α immunohistochemical staining (TNF-a area), individual mouse: CDAHFD mice; for TNF-α immunohistochemical staining (TNF-a area), Average: group average n=5, CDAHFD+Vehicle 9.246, Vehicle 2.978; for TNF-α immunohistochemical staining (TNF-a area), individual mouse: individual animals No. 1-5 (Fig.4g). Format: in vivo, mouse. The source says:
C57BL/6 J male mice were purchased from the Japan SLC. Inc (Hamamatsu, Japan). Mice (5 weeks old) were fed Teklad Certitied Irradiated Global 18% protein rodent diet purchased from Dooyeol Biotech Co. Ltd (Seoul, South Korea) during the acclimation period. The liver fibrosis/inflammation-induced groups were CDAHFD-fed (A06071302, Research diet). […] All animal experiments complied with the relevant ethical regulations.
Mouse liver tissues were fixed in 4% formalin solution (Sigma–Aldrich, St. Louis, MO, USA) and embedded in paraffin. 4-μm-thick liver sections were deparaffinized in xylene, and rehydrated through descending grades of ethanol. To evaluate liver fibrosis, sections were stained with Sirius red solution and subjected to immunohistochemical staining. Tissue sections, after deparaffinization, underwent a 16-hour incubation in a solution containing 0.1% Direct Red 80 (365548, Sigma-Aldrich) dissolved in Picric acid (P-201, Spectrum Chemical, CA, USA) for Sirius red staining. The sections were briefly immersed in a 0.01 N HCl solution (1129, Ducksan, Republic of Korea) for 2 min. and then rinsed with distilled water for destaining. Subsequently, the sections underwent dehydration through […] grades of ethanol. Immunohistochemical staining was performed using the Polyview Plus HRP-DAB (anti-Rabbit) Kit (ENZ-KIT159-0150, ENZO Life Science, NY, USA) following the manufacturers’ instructions. Deparaffinized sections were boiled in IHC-TekTM Epitope Retrieval solution (IW-1100, IHCWORLD, MD, USA) for 45 min., cooled for 1 h, incubated in a 3% H2O2 solution (69355-0350, JUNSEI, Japan) for 15 min., washed, and then incubated overnight with primary antibodies (α-SMA, ab5694, Abcam, 1:500 dilution; TNF-α, ab6671, Abcam, 1:100 dilution and IL-1β, ab9722, Abcam, 1:100 dilution). Subsequently, the sections were treated with Polyview Plus HRP for 2 h and developed with DAB chromogen/substrate. Stained […] sections were confirmed by light microscopy (Olympus BX53 upright microscope, Tokyo, Japan). The degree of hepatic fibrosis and immunohistochemical staining was quantified by morphometric analysis of stained liver sections using NIH ImageJ software.

In the next data set the test system is STZ+HFD mice. As to the kind of experiment: STZ+HFD mice (modified STAM) NASH and liver fibrosis model. Format: in vivo, mouse. Here is the method:
Mice were intraperitoneally injected with low-dose streptozotocin (40 mg/kg; 5 times) in 7-week-old mice. After injection with STZ, mice were fed an HFD for 16 weeks to induce NASH and liver fibrosis. After 16 weeks of an HFD, mice were fed a standard chow diet to mimic the NASH patient under […]
nine weeks by oral gavage (Reviewer-only data 4). […]
inflammation, hepatocyte ballooning, and total NAFLD activity score by the NASH CRN histological scoring system (Reviewer-only data 4B, C). […]
hepatic fibrosis stage similar to STZ+HFD mice treated with OCA (Reveiwer-only data 4D, E). STZ+HFD mice […]
function (Reviwer-only data 4F). […]
group (Reviewer-only data 4G). Furthermore, the expression of genes related to lipogenesis and fibrosis was reduced in the compound 11c-treated group in a dose-dependent manner (Reviewer-only data 4H, I). These […]
Reviewer-only Data 4. Compound 11c treatment with dietary modification ameliorates NASH and liver fibrosis in a dose-dependent manner. (A) Experimental scheme for in vivo efficacy of compound 11c in […]
(STZ+HFD mice. (B-I) STZ+HFD mice fed HFD for 16 weeks were switched to SCD for 9 weeks and were treated with vehicle, compound 11c, or OCA by daily oral gavage. (B) Representative liver histology by H&E staining […]
mg/kg. Scale bars, 100µm. […]
mice; n = 9 per group. (D) Representative liver histology by Masson’s trichrome staining from vehicle, […]
Scale bars, 100µm. (E) Fibrosis stage
(F) Serum AST and ALT levels; n = 9 per […]
group. (G) Serum TG levels and hepatic TG levels; n = 9 per group. (H) Relative mRNA expression of lipogenesis-related genes as assessed by qRT-PCR in the liver; n = 9 per group. (I) Relative mRNA expression of fibrosis-related genes as assessed by qRT-PCR in the liver; n = 9 per group. Data are expressed as the means ±SEM.
[…], **P<0.01, one-way ANOVA with post hoc Tukey’s test (C, E, F, G, H, I). […]
Representative liver histology by Masson’s trichrome staining and Sirius Red staining. Scale bars, 100µm. (E) […]
one-way ANOVA with post hoc Tukey’s test (C, E).
Comment 2: In "Methods", the author claims to use HEK293 cells (a type of cell derived from kidney embryos) for cell research, however, the data in Table 5 are the results of hepatocyte experiments. What happened? Response: We appreciate the Reviewer’s comment. HEK293 cells were used for inhibition assay (cell research), shown in Table 1-3 of the main manuscript, while, hepatic cell lines were used for chemical profiling and for “Hepatocyte stability” test, shown in Table 5 of the main manuscript. The “Selectivity” of Compound 11c for different 5HT subtypes is elucidated in response to Comment 6.
We have modified the Methods section to provide clarity.

The conditions of data set [1]: 3weeks.
The next data set addresses CYP1A2 (Homo sapiens, UniProt P05177). Description: in vitro.
Another data set addresses CYP2C19 (Homo sapiens, UniProt P33261). Description: in vitro.

Values joined by “and” are separate entries in the source; they are usually repeats but may differ in a detail not shown here. Equal values may be shown once. “Also recorded” adds a separate entry of the source. Read-outs that look alike come from different tables or passages of the source.

Sequence of CYP2C19 (P33261 whole entry): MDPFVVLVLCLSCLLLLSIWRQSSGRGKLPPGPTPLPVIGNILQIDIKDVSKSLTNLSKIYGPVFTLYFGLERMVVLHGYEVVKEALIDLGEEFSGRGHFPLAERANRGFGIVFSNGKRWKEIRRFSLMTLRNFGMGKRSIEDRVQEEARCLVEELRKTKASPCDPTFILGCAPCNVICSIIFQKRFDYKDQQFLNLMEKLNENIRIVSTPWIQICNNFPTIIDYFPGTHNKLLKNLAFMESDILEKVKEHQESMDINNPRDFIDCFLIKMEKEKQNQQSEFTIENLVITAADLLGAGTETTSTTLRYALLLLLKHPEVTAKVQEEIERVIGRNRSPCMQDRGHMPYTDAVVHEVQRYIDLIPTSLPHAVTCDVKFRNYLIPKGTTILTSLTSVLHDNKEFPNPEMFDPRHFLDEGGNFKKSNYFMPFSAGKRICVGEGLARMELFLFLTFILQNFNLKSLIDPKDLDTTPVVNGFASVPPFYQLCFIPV
Sequence of CYP1A2 (P05177 whole entry): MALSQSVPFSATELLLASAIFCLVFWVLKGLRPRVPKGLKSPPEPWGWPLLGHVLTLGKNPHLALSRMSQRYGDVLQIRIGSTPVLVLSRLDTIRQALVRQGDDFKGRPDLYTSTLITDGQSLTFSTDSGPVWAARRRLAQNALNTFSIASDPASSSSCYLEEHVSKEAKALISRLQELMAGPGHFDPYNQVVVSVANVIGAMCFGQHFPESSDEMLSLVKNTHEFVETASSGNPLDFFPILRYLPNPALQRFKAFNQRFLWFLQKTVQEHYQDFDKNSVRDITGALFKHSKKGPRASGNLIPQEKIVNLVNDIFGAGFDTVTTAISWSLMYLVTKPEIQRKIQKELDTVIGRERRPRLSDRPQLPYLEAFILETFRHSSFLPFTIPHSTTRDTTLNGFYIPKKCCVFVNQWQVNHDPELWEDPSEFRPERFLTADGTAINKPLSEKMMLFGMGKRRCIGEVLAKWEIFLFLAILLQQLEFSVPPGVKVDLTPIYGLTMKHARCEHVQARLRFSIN

By inhibition is commonly meant the share of the control response that was lost under treatment. In the case of `Cc1nc2n(c(=O)c1CCN1CCC(=C3c4ccc(Cl)cc4CCc4cccnc43)CC1)CCCC2O` (stereo not drawn) [Compound 11c], the “TNF-α immunohistochemical staining (TNF-a area), Average” value with TNF-α (11c 5 mpk) was 4.057; in the data set with TNF-α (11c 10mpk), 5.049. Moreover, the “TNF-α immunohistochemical staining (TNF-a area), individual mouse” value with TNF-α (11c 5 mpk) is 3.240 and 5.741 and 5.588 and 3.146 and 2.573; in the data set on TNF-α (11c 10mpk) it was 7.848 and 3.111 and 8.161 and 2.686 and 3.441. Moreover, the “TNF-α expression (immunohistochemical staining)” value in the data set with TNF-α (CDAHFD-fed 11c vs CDAHFD-fed vehicle group) is given as “significant decrease”. For the same molecule, the Hepatic triglyceride levels entry with STZ+HFD mice is listed as “reduced”. The “plasma AST and ALT levels” value in the data set on STZ+HFD mice is given as “decreased”. Besides, in the data set on STZ+HFD mice (5 or 10 mg/kg daily oral gavage, nine weeks), the “fibrosis stage and total NAFLD activity score” value is “effectively improved; also recorded: better than obeticholic acid”. In addition, the hepatic fibrosis stage entry in the data set with STZ+HFD mice (11c 5 or 10 mg/kg, OCA 10 mg/kg) is recorded as “improvement”. The “hepatic steatosis, lobular inflammation, hepatocyte ballooning, and total NAFLD activity score” value with STZ+HFD mice (NASH CRN scoring) is on record as “improved”. In addition, the “expression of genes related to lipogenesis and fibrosis” value with STZ+HFD mice (dose-dependent manner) is reported as “reduced”. In addition, the Chemical stability is given as 99.8% in data set [1] (25 °C) and 99.6% in data set [1] (60 °C). For the same molecule, the inhibition at 10 µM on CYP1A2 was less than 1%; on CYP2C19, 6.83%.
